According to patent US8859508B2, “Application of 5-methyl-1,3-benzenediol or derivatives thereof in the preparation of medicines and functional foods for treatment or prevention of depression” (Kunming Institute of Botany, Chinese Academy of Sciences, priority 2007, dated 2014):

What was measured:
Kunming mice [1] = experiment: Forced swim test (FST) in mice; conditions: FST mice
Kunming mice [2] = experiment: Tail suspension test (TST) in mice; conditions: TST mice, positive control, 15 mg/kg
Sprague-Dawley rats = experiment: Forced swim test (FST) in rats; format: in vivo, rat; conditions: positive control, 15 mg/kg
Kunming mice [3] = experiment: Elevated plus maze (EPM) test in mice; format: in vivo, mouse; conditions: positive control, 2 mg/kg
Description: Kunming mice (Certificate Number: A4CXK(Chuan)2003-16) from the Institute of Experimental Animals, People's Hospital of Sichuan Province, were used. They were 3-4 weeks old at the beginning of the experiment and weighed 25-30 g. ORG was prepared as described in Example 1. Animals were divided into drug administration groups with different doses of ORG, a vehicle control group, and a diazepam group (Jinyao Ltd. Co., Batch No. 106k1588) as positive control.
Elevated plus maze (EPM): The EPM had two open and two closed arms of equal size (30 cm long×5 cm wide). The two closed arms were connected by a central 5 cm×5 cm area. The whole maze was elevated to a height of 35 cm. ORG was administered i.p. 24 h and 5 h before the test started. Mice were individually placed in the center of the maze facing a closed arm. Each animal was tested for 5 min in a single session. The number of entrances into open arms, the number of entrances into closed arms, the total time spent in open arms, and the total time spent in closed arms were recorded; a standard of entry was defined as all limbs entering the arm. The number of entrances into open arms and time spent in open arms were the major indexes to evaluate the anxiety level of the animals, for the more entrances or time, the less the anxiety level.
(§1) Data analysis: The results of the test are expressed as mean±SEM. One-way ANOVA was used followed by the LSD test with SPSS 11 software. The significance level was set at P<0.05.

Kunming mice [4] = experiment: Morris water maze (MWM) in mice; format: in vivo, mouse
Description: Kunming mice (Certificate Number: A4CXK(Chuan)2003-16) from the Institute of Experimental Animals, People's Hospital of Sichuan Province, were used. They were 3-4 weeks old at the beginning of the experiment and weighed 25-30 g. ORG was prepared as described in Example 1. Animals were divided into drug administration groups with fluoxetine or different doses of ORG and a vehicle control group. The drug administration groups received 1.75 mg/kg or 3.5 mg/kg of ORG or 15 mg/kg of fluoxetine. Animals received a single i.p. injection of drug or vehicle 30 min either after training every day or 30 min before the retention test on day 8.
Morris water maze: The MWM was performed in a circular pool (100 cm in diameter and 36 cm in depth) with a hidden platform (10 cm×10 cm) that was approximately 1 cm below the water surface. The pool was surrounded by yellow curtains with different shaped markers hanging in each quadrant. The time spent to find the hidden platform and the trajectory of the mouse were recorded by computer. From days 1 to 7, mice were placed in the pool to find the fixed hidden platform. On day 8, the platform was removed and the time that the mouse spent in the target quadrant was counted in 1 min of free swimming.
as §1

serum corticosterone = experiment: Serum corticosterone level (radioimmunoassay), non-stressed and elevated platform stressed rats; format: in vivo, rat
CMS model mice [5] = experiment: FST in chronic unpredictable mild stress (CMS) model mice; format: in vivo, mouse; conditions: CMS mice, positive control, 15 mg/kg
Description: (§2) Kunming mice (Certificate Number: A4CXK(Chuan)2003-16) from the Institute of Experimental Animals, People's Hospital of Sichuan Province, were used. They were 3-4 weeks old at the beginning of experiments and weighed 25-30 g. ORG was prepared as described in Example 1. Animals were divided into experiment groups with different doses, a vehicle control group, and an imipramine group (Sigma, Batch No. 106k1588) as positive control.
(§3) CMS model: The chronic mild stresses that Kunming mice were subjected to were reversal of circadian rhythm, continuous light, cold, damp bedding, tilt cages, food and water restriction, and restraint. […] The stress period lasted for 8 weeks. In the last week, ORG was administered orally once a day for 7 consecutive days. The behavioral test was carried out 30 min after the last administration. The parameter tested was immobility time in the FST and TST in the CMS model mice. The methods of FST and TST and data analysis were as described above.

DD model mice [6] = experiment: FST in constant darkness (DD) model mice; format: in vivo, mouse; conditions: DD mice, positive control, 15 mg/kg
Description: (§4) Kunming mice (Certificate Number: A4CXK(Chuan)2003-16) from the Institute of Experimental Animals, People's Hospital of Sichuan Province, were used. They were 3-4 weeks old at the beginning of the experiments and weighed 25-30 g. ORG was prepared as described in Example 1. Animals were divided into experimental groups with different doses, vehicle control groups, and an imipramine group (Sigma, Batch No. 106k1588) as positive control.
(§5) DD model in mice: Mice were kept under 24 h continuous dark conditions. The replacement of padding, addition of food and water, and other operations were undertaken in the condition that the intensity of red light was less than 1.0 lux. The period of this condition lasted for 28 days. In the last week, ORG was administered orally once a day for 1 week. The FST and TST were carried out 30 min after the last administration. Methods and data analysis were as described above.

DD model mice [7] = experiment: TST in constant darkness (DD) model mice; format: in vivo, mouse; conditions: DD mice, positive control, 15 mg/kg
Description: as §4, §5

SD model mice = experiment: FST in sleep deprivation (SD) model mice; format: in vivo, mouse; conditions: SD model mice, 24 h and 5 h before FST, 7.5 mg/kg
Description: Kunming mice (Certificate Number: A4CXK(Chuan)2003-16) from the Institute of Experimental Animals, People's Hospital of Sichuan Province, were used. They were 3-4 weeks old at the beginning of the experiments and weighed 25-30 g. ORG was prepared as described in Example 1. Animals were divided into experiment groups with different doses, a vehicle control group, and an imipramine group (Sigma, Batch No. 1061c1588) as positive control.
SD model: A modified method with multiple platforms in a water environment was used to establish the SD model in mice. Mice on the platforms were free to eat and drink. However, if it fell asleep, it fell into the water because of the loss of muscle tone. The fallen animal climbed onto the platform again via a tilt pole which propped up the platforms. After 72 h of sleep deprivation, ORG was administered orally 24 h and 5 h before the FST started. The immobility time of animals were recorded. Methods and data analysis were as described above.

CMS model mice [8] = experiment: TST in chronic unpredictable mild stress (CMS) model mice; format: in vivo, mouse; conditions: CMS mice, positive control, 15 mg/kg
Description: as §2, §3

[9] = positive control, 15 mg/kg (Table 2)
[10] = i.p. 24 h and 5 h before test, 10 mg/kg (Table 5)

`Cc1cc(O)cc(O)c1` [OR, orcinol] was tested, and the “Immobility time (s) (mean ± SEM)” value (Kunming mice [1]; i.p. 24 h and 5 h before test, 10 mg/kg (Table 4)) was 82.40 ± 10.64 s.
For `COc1ccc(C(CN(C)C)C2(O)CCCCC2)cc1` (stereo not drawn) [Venlafaxine, venlafaxine, reference compound], the “Immobility time (s) (mean ± SEM)” value (Kunming mice [1]; [9]) was 134.28 ± 3.76 s, the “Immobility time (s) (mean ± SEM)” value (Kunming mice [2]) was 102.85 ± 9.34 s and the “Immobility time (s) (mean ± SEM)” value (Sprague-Dawley rats) was 100.80 ± 9.84 s.
With `CN1C(=O)CN=C(c2ccccc2)c2cc(Cl)ccc21` [Diazepam, diazepam, reference compound] the “Number of entries into open arms (mean ± SEM)” value (Kunming mice [3]) was 4.80 ± 0.77 and the “Total time spent in the open arms (s) (mean ± SEM)” value (Kunming mice [3]) was 46.90 ± 7.19 s.
In the case of `CNCCC(Oc1ccc(C(F)(F)F)cc1)c1ccccc1` (stereo not drawn) [Fluoxetine, reference compound], the “Time spent in the right quadrant (s) (mean ± SEM)” value (Kunming mice [4]; i.p. 30 min before retrieval on day 8, 15 mg/kg) is reported as 29.44 ± 2.14 s, the “Time spent in the right quadrant (s) (mean ± SEM)” value (Kunming mice [4]; i.p. daily 30 min after training, retention test day 8, 15 mg/kg) is reported as 32.61 ± 2.20 s and the “Concentration of serum corticosterone (ng/ml) (mean ± SEM)” value (“Concentration … (mean ± SEM)” for short) (serum corticosterone; non-stress rats, 15 mg/kg) is reported as 167.20 ± 31.35 ng/mL. For the same molecule, the “Concentration … (mean ± SEM)” value (serum corticosterone; non-stress rats, 30 mg/kg) was 178.14 ± 38.77 ng/mL, the “Concentration … (mean ± SEM)” value (serum corticosterone; stress rats, 15 mg/kg) was 331.35 ± 46.43 ng/mL and the “Concentration … (mean ± SEM)” value (serum corticosterone; stress rats, 30 mg/kg) was 324.58 ± 58.63 ng/mL.
In the case of `Cc1cc(O)cc(OC2OC(COC3OC(CO)C(O)C(O)C3O)C(O)C(O)C2O)c1` [ORGG, orcinol-1-O-[β-D-glucopyranosyl-(1→6)]-β-D-glucopyranoside], the “Immobility time (s) (mean ± SEM)” value (Kunming mice [1]; [10]) is reported as 184.20 ± 11.29 s.
For `CC(=O)Oc1cc(C)cc(OC(C)=O)c1` [OR-2Ac, 1,3-O-diacetylorcinol], the “Immobility time (s) (mean ± SEM)” value (Kunming mice [1]; [10]) was 170.10 ± 6.37 s.
For `CN(C)CCCN1c2ccccc2CCc2ccccc21` [Imipramine, imipramine, reference compound], the “Immobility time (s) (mean ± SEM)” value (Kunming mice [1]; [9]) was 131.20 ± 3.91 s, the “Immobility time (s) (mean ± SEM)” value (Kunming mice [1]; positive control, 15 mg/kg (Table 4)) was 96.38 ± 12.04 s and the “Immobility time (s) (mean ± SEM)” value (Kunming mice [1]; positive control, 15 mg/kg (Table 5)) was 146.00 ± 6.46 s. For the same molecule, the “Immobility time (s) (mean ± SEM)” value (CMS model mice [5]) was 166.00 ± 13.84 s, the “Immobility time (s) (mean ± SEM)” value (DD model mice [6]) was 161.22 ± 13.08 s and the “Immobility time (s) (mean ± SEM)” value (Kunming mice [2]) was 105.65 ± 5.71 s. The “Immobility time (s) (mean ± SEM)” value (Sprague-Dawley rats) was 92.72 ± 7.09 s, the “Immobility time (s) (mean ± SEM)” value (DD model mice [7]) was 131.22 ± 10.61 s and the “Immobility time (s) (mean ± SEM)” value (SD model mice) was 150.27 ± 13.17 s. For the same molecule, the “Immobility time (s) (mean ± SEM)” value (CMS model mice [8]) was 131.22 ± 10.61 s.
